Measured values as given in US11045457B2, “Piperidinyl-3-(aryloxy)propanamides and propanoates” (priority 2018, dated 2021).

Each compound was assayed against SSTR4 (Homo sapiens (Human), UniProt P31391) (assay: Inhibition of forskolin stimulated cAMP in CHO-K1 cells overexpressing SSTR4). Details: not given.
Type: cell-based
Procedure: Inhibition of Forskolin Stimulated cAMP in Cells Overexpressing SSTR4
This cell-based assay measures the ability of compounds to inhibit forskolin stimulated cAMP in CHO-K1 cells overexpressing SSTR4. CHO-K1 cells overexpressing SSTR4 (CHO-SSTR4) are purchased from DiscoveRx (product code 95-0059C2). The CHO-SSTR4 cells are maintained in F12K media with 10% Fetal Bovine Serum (Hyclone), 1% Pen/Strep (Life Technologies), and 800 μg/mL G418 (Life Technologies). […] The next day, the culture media is removed from the cells and the cells are washed (added then removed) with Kreb's Ringer Buffer (ZenBio, KRB-1000 mL). […] The cells are incubated in […] for 30 minutes at room temperature. Cellular cAMP levels are detected with a HTRF LANCE Ultra cAMP kit (Perkin Elmer, catalog number TRF0264).
The assay is performed in accordance with the manufacturer's instructions. Five μL of diluted Eu-W8044 labeled streptavidin (dilution: 1:50 in cAMP Detection Buffer) is added to each well. Then 5 μL of diluted biotin cAMP (dilution: 1:150 in cAMP Detection Buffer) is added to each well. The plates are covered and allowed to incubate for 60 minutes at room temperature on a shaker. […] The pEC50 values are generated using Activity Base for Screening Data Management.

SSTR4, sequence (P31391 whole entry): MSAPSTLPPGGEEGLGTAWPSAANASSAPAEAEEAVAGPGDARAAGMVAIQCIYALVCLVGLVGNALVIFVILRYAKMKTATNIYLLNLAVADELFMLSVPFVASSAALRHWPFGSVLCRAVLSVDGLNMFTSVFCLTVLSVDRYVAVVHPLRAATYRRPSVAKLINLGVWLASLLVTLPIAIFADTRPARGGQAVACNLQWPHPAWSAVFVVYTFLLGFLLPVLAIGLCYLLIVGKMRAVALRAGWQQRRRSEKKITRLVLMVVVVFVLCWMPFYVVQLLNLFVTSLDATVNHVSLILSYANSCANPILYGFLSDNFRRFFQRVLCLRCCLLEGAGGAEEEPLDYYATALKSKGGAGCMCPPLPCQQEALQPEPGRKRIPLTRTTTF

SSTR4 Activity pEC50	Compound
6.7	CCC1CC(NC(=O)C(C)(C)COc2ncccc2C(F)(F)F)CCN1C (centres unmarked) [Example 137, N-(2-ethyl-1-methylpiperidin-4-yl)-2,2-dimethyl-3-((3-(trifluoromethyl)pyridin-2-yl)oxy)propanamide]
6.7	CCC1CC(NC(=O)C(C)(C)COc2ncccc2OC(F)(F)F)CCN1C (centres unmarked) [Example 146, N-(2-ethyl-1-methylpiperidin-4-yl)-2,2-dimethyl-3-((3-(trifluoromethoxy)pyridin-2-yl)oxy)propanamide]
6.7	CC(C)(COc1ncccc1C(F)(F)F)C(=O)NC1CCNCC1(F)F (centres unmarked) [Example 159, N-(3,3-difluoropiperidin-4-yl)-2,2-dimethyl-3-((3-(trifluoromethyl)pyridin-2-yl)oxy)propanamide]
7.2	CN1CCC(NC(=O)C(C)(C)COc2cnccc2C(F)(F)F)CC1 [Example 42, 2,2-dimethyl-N-(1-methylpiperidin-4-yl)-3-((4-(trifluoromethyl)pyridin-3-yl)oxy)propanamide]
6.1	CC(C)[C@@H]1CN(C)CC[C@@H]1NC(=O)C(C)(C)COc1ncccc1C(F)(F)F (relative stereo) [Example 34, cis-N-(3-isopropyl-1-methylpiperidin-4-yl)-2,2-dimethyl-3-((3-(trifluoromethyl)pyridin-2-yl)oxy)propanamide]
5.8	Cc1cccnc1OCC1(C(=O)NC2CCN(C)CC2)CC1 [Example 63, N-(1-methylpiperidin-4-yl)-1-(((3-methylpyridin-2-yl)oxy)methyl)cyclopropane-1-carboxamide]
6.1	Cc1cc(C#N)cnc1OCC(C)(C)C(=O)NC1CCN(C)CC1 [Example 51, 3-((5-cyano-3-methylpyridin-2-yl)oxy)-2,2-dimethyl-N-(1-methylpiperidin-4-yl)propanamide]
5.9	CN1CCC(NC(=O)C(C)(C)COc2nccc(Cl)c2F)CC1 [Example 44, 3-((4-chloro-3-fluoropyridin-2-yl)oxy)-2,2-dimethyl-N-(1-methylpiperidin-4-yl)propanamide]
6.6	Cc1cnc(OCC(C)(C)C(=O)N[C@H]2CCN(C)C[C@@H]2F)c(C)c1 [Example 122, 3-((3,5-dimethylpyridin-2-yl)oxy)-N-((3S,4S)-3-fluoro-1-methylpiperidin-4-yl)-2,2-dimethylpropanamide]
7.0	Cc1cnc(OCC(C)(C)C(=O)NC2CCN(C)CC2)c(Cl)c1 [Example 82, 3-((3-chloro-5-methylpyridin-2-yl)oxy)-2,2-dimethyl-N-(1-methylpiperidin-4-yl)propanamide]
6.9	Cc1cccnc1OCC(F)(F)C(=O)N[C@@H]1CCN(C)[C@H](C)C1 [Example 205, N-((2R,4R)-1,2-dimethylpiperidin-4-yl)-2,2-difluoro-3-((3-methylpyridin-2-yl)oxy)propanamide]
6.9	CN1CCC(NC(=O)C(C)(C)COc2ccncc2C(F)(F)F)CC1 [Example 43, 2,2-dimethyl-N-(1-methylpiperidin-4-yl)-3-((3-(trifluoromethyl)pyridin-4-yl)oxy)propanamide]
7.2	CN1CCC(NC(=O)C(C)(C)COc2ncc(Br)cc2C(F)(F)F)CC1 [Example 100, 3-((5-bromo-3-(trifluoromethyl)pyridin-2-yl)oxy)-2,2-dimethyl-N-(1-methylpiperidin-4-yl)propanamide]
6.4	Cc1cccc(C#N)c1OCC(C)(C)C(=O)NC1CCN(C)CC1 [Example 77, 3-(2-cyano-6-methylphenoxy)-2,2-dimethyl-N-(1-methylpiperidin-4-yl)propanamide]
6.1	CC(C)(COc1ncccc1C(F)(F)F)C(=O)NC1CNCC1(F)F (centres unmarked) [Example 131, N-(4,4-difluoropyrrolidin-3-yl)-2,2-dimethyl-3-((3-(trifluoromethyl)pyridin-2-yl)oxy)propanamide]
6.4	CN(C(=O)C(C)(C)COc1ncccc1C(F)(F)F)[C@H]1CCNC[C@@H]1F [Example 160, N-((3S,4S)-3-fluoropiperidin-4-yl)-N,2,2-trimethyl-3-((3-(trifluoromethyl)pyridin-2-yl)oxy)propanamide]
7.1	Cc1ccc(C2CC2)c(OCC(C)(C)C(=O)NC2CCN(C)CC2)n1 [Example 9, 3-((3-cyclopropyl-6-methylpyridin-2-yl)oxy)-2,2-dimethyl-N-(1-methylpiperidin-4-yl)propanamide]
5.8	CN1CCC(NC(=O)C(C)(C)COc2ccc(Cl)cc2)CC1 [Example 217, 3-(4-chlorophenoxy)-2,2-dimethyl-N-(1-methylpiperidin-4-yl)propanamide]
6.2	CN1CCC(NC(=O)C(C)(C)COc2nnc(Cl)cc2C(F)(F)F)CC1 [Example 98, 3-((6-chloro-4-(trifluoromethyl)pyridazin-3-yl)oxy)-2,2-dimethyl-N-(1-methylpiperidin-4-yl)propanamide]
6.5	CN1CC(NC(=O)C(C)(C)COc2ncccc2C(F)(F)F)CC1(C)C (centres unmarked) [Example 35, 2,2-dimethyl-3-((3-(trifluoromethyl)pyridin-2-yl)oxy)-N-(1,5,5-trimethylpyrrolidin-3-yl)propanamide]
6.6	CN1CC[C@@H](NC(=O)C(C)(C)COc2ncccc2C(F)(F)F)[C@H](c2ccccc2)C1 (relative stereo) [Example 164, 2,2-dimethyl-N-(trans-1-methyl-3-phenylpiperidin-4-yl)-3-((3-(trifluoromethyl)pyridin-2-yl)oxy)propanamide]
6.8	Cc1ccc(C2CC2)c(OCC(C)(C)C(=O)N[C@@H]2CCN(C)C2)n1 [Example 10, (R)-3-((3-cyclopropyl-6-methylpyridin-2-yl)oxy)-2,2-dimethyl-N-(1-methylpyrrolidin-3-yl)propanamide]
6.2	Cc1cnc(OCC(C)(C)C(=O)N[C@@H]2CCN(C)C[C@H]2C)c(C)c1 (single isomer, unassigned) [Example 140]
7.3	CCc1cccnc1OCC(C)(C)C(=O)N[C@@H]1CCN(C)C1 [Example 86, (R)-3-((3-ethylpyridin-2-yl)oxy)-2,2-dimethyl-N-(1-methylpyrrolidin-3-yl)propanamide]

Compound	SSTR4 Activity pEC50
C[C@@H]1CN(C)CC[C@H]1NC(=O)C(C)(C)COc1ncccc1C(F)(F)F (single isomer, unassigned) [Example 106]	6.0
Cc1cccnc1OCC(C)(C)C(=O)N[C@H]1CN(C)CC12CC2 [Example 153, (R)-2,2-dimethyl-N-(5-methyl-5-azaspiro[2.4]heptan-7-yl)-3-((3-methylpyridin-2-yl)oxy)propanamide]	8.1
Cc1cnccc1OCC(C)(C)C(=O)NC1CCN(C)CC1 [Example 50, 2,2-dimethyl-N-(1-methylpiperidin-4-yl)-3-((3-methylpyridin-4-yl)oxy)propanamide]	6.2
Cc1cnc(OCC(C)(C)C(=O)N[C@H]2CN(C)CC23CC3)c(C)c1 [Example 154, (R)-3-((3,5-dimethylpyridin-2-yl)oxy)-2,2-dimethyl-N-(5-methyl-5-azaspiro[2.4]heptan-7-yl)propanamide]	7.4

Same assay, conditions: read-out: SSTR4 Activity pEC50 (converted)

EC50 [nM]	Compound
31.6	Cc1cccnc1OCC(C)(C)C(=O)N[C@@H]1CN(C)C[C@H]1c1ccc(Cl)cc1 (relative stereo) [Example 55, trans-N-(4-(4-chlorophenyl)-1-methylpyrrolidin-3-yl)-2,2-dimethyl-3-((3-methylpyridin-2-yl)oxy)propanamide]
200	Cc1cnc(OCC(C)(C)C(=O)N[C@@H]2CN(C)C[C@H]2c2ccc(Cl)cc2)c(C)c1 (relative stereo) [Example 93, trans-N-(4-(4-chlorophenyl)-1-methylpyrrolidin-3-yl)-3-((3,5-dimethylpyridin-2-yl)oxy)-2,2-dimethylpropanamide]
158	CN1CCC(NC(=O)C(C)(C)COc2ncccc2C(F)(F)F)C12CCC2 (centres unmarked) [Example 151, 2,2-dimethyl-N-(5-methyl-5-azaspiro[3.4]octan-8-yl)-3-((3-(trifluoromethyl)pyridin-2-yl)oxy)propanamide]
12.6	C[C@@H]1CN(C)CC[C@H]1NC(=O)C(F)(F)COc1ncccc1C1CC1 (relative stereo) [Example 192, trans-3-((3-cyclopropylpyridin-2-yl)oxy)-N-(1,3-dimethylpiperidin-4-yl)-2,2-difluoropropanamide]
79.4	CN1CCC(NC(=O)C(C)(C)COc2cccnc2C(F)(F)F)CC1 [Example 52, 2,2-dimethyl-N-(1-methylpiperidin-4-yl)-3-((2-(trifluoromethyl)pyridin-3-yl)oxy)propanamide]
316	CC(C)(COc1ncccc1C(F)(F)F)C(=O)O[C@@H]1CCNC[C@H]1c1ccccc1 (relative stereo) [Example 171, trans-3-phenylpiperidin-4-yl 2,2-dimethyl-3-((3-(trifluoromethyl)pyridin-2-yl)oxy)propanoate]
200	CCc1ccccc1OCC(C)(C)C(=O)N[C@@H]1CN(C)C[C@H]1OC (relative stereo) [Example 96, trans-3-(2-ethylphenoxy)-N-(4-methoxy-1-methylpyrrolidin-3-yl)-2,2-dimethylpropanamide]
